Assays:
Cytochrome P450 2E1 = Cytochrome P450 2E1 (Homo sapiens, UniProt P05181); test: Activity of human recombinant CYP2E1 assessed as enzyme contribution (% total relative CL) towards [14C]SPP100 hemifumarate metabolism in human liver microsome; assay type: ADME; conditions: microsomes
[1] = Concentration of radioactivity in the liver following repeated oral administration of [14C] aliskiren hemifumarate at 100 mg.Kg-1 level studied at 2h after 10th dose in rat; assay type: ADME, organism-based, Albino HAN:WIST; conditions: in vivo
[2] = Excretion of radioactivity (24-48h) in faeces following single intravenous dose of 10 mg.Kg-1 [14C] aliskiren hemifumarate in mouse; assay type: ADME, organism-based, TgRasH2, Feces; conditions: in vivo
[3] = Faecal elimination of aliskiren following single oral dose of [14C] aliskiren hemifumarate at 500 mg.Kg-1 level in mouse; assay type: ADME, organism-based, TgRasH2, Feces; conditions: in vivo
Cytochrome P450 2D6 = Cytochrome P450 2D6 (Homo sapiens, UniProt P10635); test: Metabolic clearance (ul.min.nmol-1 CYP) of aliskiren hemifumarate for CYP2D6 was determined in human liver microsome incubated with [14C]SPP100 hemifumarate; assay type: ADME; conditions: microsomes
[4] = Excretion of radioactivity (24-48h) in urine following single intravenous dose of 10 mg.Kg-1 [14C] aliskiren hemifumarate in rat; assay type: ADME, organism-based, Albino HAN:WIST; conditions: in vivo
[5] = % SPP100 (0-168h) recovered in urine following single oral dose of [14C] aliskiren hemifumarate at 3 mg.Kg-1 level in marmoset; assay type: ADME, organism-based, Callithrix jacchus; conditions: in vivo
[6] = Excretion (0-168h) of aliskiren in urine following oral administration of [14C] aliskiren hemifumarate at 3 mg.Kg-1 level in marmoset; assay type: ADME, organism-based, Callithrix jacchus; conditions: in vivo
[7] = AUC of SPP100 following single oral dose of [14C] aliskiren hemifumarate at 3 mg.Kg-1 level in marmoset; assay type: ADME, organism-based, Callithrix jacchus, Plasma; conditions: in vivo
CYP2A6 = biological target: T1, CYP2A6 (Homo sapiens, UniProt P11509); test: Inhibitory activity of 200 uM SPP100 on 34 Pmoles of cDNA-derived CYP2A6 enzyme in microsome prepared from human lymphoblastoid cell line; assay type: ADME, microsomes; set-up: conc 200 uM, interact cpd conc 3 uM; conditions: probe coumarine
T1 sequence (P11509 whole entry): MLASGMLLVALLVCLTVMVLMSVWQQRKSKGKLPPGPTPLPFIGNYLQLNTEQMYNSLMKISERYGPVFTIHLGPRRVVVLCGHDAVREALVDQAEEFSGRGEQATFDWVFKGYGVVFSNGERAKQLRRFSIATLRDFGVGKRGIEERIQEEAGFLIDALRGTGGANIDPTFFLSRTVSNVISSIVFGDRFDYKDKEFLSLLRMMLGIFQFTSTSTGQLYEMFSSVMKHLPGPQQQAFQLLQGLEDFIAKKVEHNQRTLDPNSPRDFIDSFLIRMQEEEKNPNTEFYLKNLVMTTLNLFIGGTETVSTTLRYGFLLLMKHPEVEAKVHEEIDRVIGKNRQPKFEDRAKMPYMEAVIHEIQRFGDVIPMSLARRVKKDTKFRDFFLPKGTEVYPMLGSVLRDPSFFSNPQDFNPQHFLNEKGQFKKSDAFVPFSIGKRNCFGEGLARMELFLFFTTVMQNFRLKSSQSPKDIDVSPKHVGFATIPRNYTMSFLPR

CYP2C19 [8] = biological target: T2, CYP2C19 (Homo sapiens, UniProt P33261); test: Inhibitory activity of 200 uM SPP100 on 1375 Pmoles of cDNA-derived CYP2C19 enzyme in microsome prepared from human lymphoblastoid cell line; assay type: ADME, microsomes; set-up: conc 200 uM, interact cpd conc 50 uM; conditions: probe (S)-mephenytoin (50 uM)
CYP2E1 = CYP2E1 (Homo sapiens, UniProt P05181); test: Inhibition of CYP2E1 in human liver microsomes from 10 healthy donors at 200 uM aliskiren (SPP100); assay type: ADME, Microsome; set-up: conc 200 uM; conditions: probe chlorzoxazone (6-hydroxylation)
[9] = % of radioactivity recovered as aliskiren in urine following oral administration of [14C] aliskiren hemifumarate at 100 mg.Kg-1 level in rat; assay type: ADME, organism-based, Albino HAN:WIST; conditions: in vivo
CYP2C19 [10] = biological target: T2, CYP2C19; test: Inhibitory activity of 200 uM SPP100 on 1077 Pmoles of cDNA-derived CYP2C19 enzyme in microsome prepared from human lymphoblastoid cell line; assay type: ADME, microsomes; set-up: conc 200 uM, interact cpd conc 50 uM; conditions: probe (S)-mephenytoin (50 uM)
[11] = Cmin of aliskiren hemifumarate following repeated oral administration of [14C] aliskiren hemifumarate at 100 mg.Kg-1 level studied after first dosing in rat; assay type: ADME, organism-based, Albino HAN:WIST; conditions: in vivo
[12] = Tmax of aliskiren hemifumarate following repeated oral administration of [14C] aliskiren hemifumarate at 100 mg.Kg-1 level studied after 2h of dosing on day 10 in rat; assay type: ADME, organism-based, Albino HAN:WIST; conditions: in vivo
[13] = Effect of 2 week oral dosing of aliskiren hemifumarate at 50 mg.Kg-1 level on plasma creatinine level in female Callithrix jacchus; assay type: toxicity, organism-based; conditions: marmoset, 336 h
[14] = Cmin of aliskiren hemifumarate following repeated oral administration of [14C] aliskiren hemifumarate at 100 mg.Kg-1 level studied at steady state during a dosing interval in rat; assay type: ADME, organism-based, Albino HAN:WIST; conditions: in vivo
[15] = Effect of 2 week oral dosing of aliskiren hemifumarate at 10 mg.Kg-1 level on hematological parameter values in female Callithrix jacchus; assay type: toxicity, organism-based, Plasma; conditions: marmoset, in vivo, 336 h
[16] = Tmax (0-96h) of unlabeled aliskiren hemifumarate following intravenous administration of aliskiren hemifumarate at 10 mg.Kg-1 level in rat; assay type: ADME, organism-based; conditions: Albino HAN:WIST, plasma
[17] = Tmax of aliskiren hemifumarate following 4 week oral dietary dosing of aliskiren hemifumarate at 1500 mg.Kg-1 level in female mouse; assay type: ADME, organism-based; conditions: CB6F1-TGrasH2, mouse, in vivo
[18] = Cmax of aliskiren hemifumarate following 2 week oral dosing of aliskiren hemifumarate at 10 mg.Kg-1 level studied on day 1 in male Callithrix jacchus; assay type: ADME, organism-based; conditions: marmoset, plasma
[19] = AUC (0-24h)/dose of aliskiren hemifumarate following 4 week oral dietary dosing of aliskiren hemifumarate at 500 mg.Kg-1 level in female mouse; assay type: ADME, organism-based, CB6F1-TGrasH2, Plasma; conditions: in vivo
[20] = Cmax/dose of aliskiren hemifumarate following 4 week oral dietary dosing of aliskiren hemifumarate at 500 mg.Kg-1 level in male mouse; assay type: ADME, organism-based, CB6F1-TGrasH2; conditions: in vivo, 672 h
[21] = Cmax of aliskiren hemifumarate following 2 week oral dosing of aliskiren hemifumarate at 50 mg.Kg-1 level studied on day 14 in male Callithrix jacchus; assay type: ADME, organism-based; conditions: marmoset, plasma
[22] = AUC (0-24h)/dose of aliskiren hemifumarate following 4 week oral dietary dosing of aliskiren hemifumarate at 2000 mg.Kg-1 level in female mouse; assay type: ADME, organism-based, CB6F1-TGrasH2, Plasma; conditions: in vivo

T2 sequence (P33261 whole entry): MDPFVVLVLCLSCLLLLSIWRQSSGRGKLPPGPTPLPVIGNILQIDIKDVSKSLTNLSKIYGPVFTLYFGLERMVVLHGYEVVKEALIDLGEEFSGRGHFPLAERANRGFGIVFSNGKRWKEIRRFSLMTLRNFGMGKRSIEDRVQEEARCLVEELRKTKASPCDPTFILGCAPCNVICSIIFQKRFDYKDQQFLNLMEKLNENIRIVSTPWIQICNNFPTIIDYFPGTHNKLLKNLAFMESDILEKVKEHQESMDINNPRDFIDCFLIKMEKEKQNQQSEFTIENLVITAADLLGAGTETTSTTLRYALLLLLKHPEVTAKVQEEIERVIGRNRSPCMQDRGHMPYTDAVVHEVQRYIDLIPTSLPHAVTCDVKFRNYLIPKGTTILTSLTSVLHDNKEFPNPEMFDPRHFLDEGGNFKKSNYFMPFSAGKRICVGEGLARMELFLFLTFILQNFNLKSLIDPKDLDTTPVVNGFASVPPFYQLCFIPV
Chain of Cytochrome P450 2D6 (P10635 whole entry): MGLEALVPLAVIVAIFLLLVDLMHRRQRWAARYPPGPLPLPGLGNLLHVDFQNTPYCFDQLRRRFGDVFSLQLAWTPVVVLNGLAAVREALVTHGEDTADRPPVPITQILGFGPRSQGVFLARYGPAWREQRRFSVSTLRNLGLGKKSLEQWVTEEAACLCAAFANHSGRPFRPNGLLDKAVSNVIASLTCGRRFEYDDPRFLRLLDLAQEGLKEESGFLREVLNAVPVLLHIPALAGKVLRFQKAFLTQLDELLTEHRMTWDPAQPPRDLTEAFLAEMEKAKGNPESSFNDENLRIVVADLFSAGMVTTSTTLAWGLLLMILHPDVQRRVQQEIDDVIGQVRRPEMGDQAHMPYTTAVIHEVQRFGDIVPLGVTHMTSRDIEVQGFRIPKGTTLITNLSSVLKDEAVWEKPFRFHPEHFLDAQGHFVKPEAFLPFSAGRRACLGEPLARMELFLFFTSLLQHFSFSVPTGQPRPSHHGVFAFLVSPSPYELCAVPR
Chain of CYP2E1 (P05181 whole entry): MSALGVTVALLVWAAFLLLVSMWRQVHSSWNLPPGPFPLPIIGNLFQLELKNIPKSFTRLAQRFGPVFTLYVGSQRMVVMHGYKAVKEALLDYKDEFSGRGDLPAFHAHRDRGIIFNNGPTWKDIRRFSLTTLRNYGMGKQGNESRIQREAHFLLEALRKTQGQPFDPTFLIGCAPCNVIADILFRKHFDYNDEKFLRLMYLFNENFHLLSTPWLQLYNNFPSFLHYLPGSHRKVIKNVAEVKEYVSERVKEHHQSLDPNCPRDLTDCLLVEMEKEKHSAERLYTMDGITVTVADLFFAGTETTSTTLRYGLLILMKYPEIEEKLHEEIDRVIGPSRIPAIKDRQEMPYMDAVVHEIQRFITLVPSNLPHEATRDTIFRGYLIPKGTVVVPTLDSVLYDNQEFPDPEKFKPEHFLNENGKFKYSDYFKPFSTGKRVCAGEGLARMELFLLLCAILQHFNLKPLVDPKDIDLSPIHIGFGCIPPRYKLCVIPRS
Chain of Cytochrome P450 2E1 (P05181 whole entry): as above

SMILES: COCCCOc1cc(C[C@@H](C[C@H](N)[C@@H](O)C[C@H](C(=O)NCC([14CH3])([14CH3])C(N)=O)C(C)C)C(C)C)ccc1OC.O=C(O)/C=C/C(=O)O
- Activity (Cytochrome P450 2E1): 0.06%
- Radiolabel recovery [1]: OUTCOME = Detected
- Radiolabel recovery [2]: 5.69%
- Radiolabel recovery [3]: OUTCOME = Observed, VALUE = Elimination of aliskiren occurred mainly via the biliary or faecal route
- CL (Cytochrome P450 2D6): 74.4 µL·min/nmol
- Radiolabel recovery [4]: 40%

SMILES: COCCCOc1cc(C[C@@H](C[C@H](N)[C@@H](O)C[C@H](C(=O)NCC(C)(C)C(N)=O)C(C)C)C(C)C)ccc1OC
- Compound recovery [5]: 2.3%
- Compound recovery [6]: 2.3%
- AUC [7]: 868 ng·h/mL
- inhibition at 200 µM (CYP2A6): 10.5%
- inhibition at 200 µM (CYP2C19 [8]): -15.4%
- inhibition at 200 µM (CYP2E1): -12.8%
- Compound recovery [9]: <= 2%
- inhibition at 200 µM (CYP2C19 [10]): 9.6%

SMILES: COCCCOc1cc(C[C@@H](C[C@H](N)[C@@H](O)C[C@H](C(=O)NCC(C)(C)C(N)=O)C(C)C)C(C)C)ccc1OC.COCCCOc1cc(C[C@@H](C[C@H](N)[C@@H](O)C[C@H](C(=O)NCC(C)(C)C(N)=O)C(C)C)C(C)C)ccc1OC.O=C(O)/C=C/C(=O)O [ALISKIREN FUMARATE]
- Cmin(1) [11]: 3.47 nM
- Tmax(10) [12]: 218 h
- CREAT_CHANGE_BY [13]: 130%
- Cmin(ss) [14]: 4.54 nM
- Change in hematology [15]: OUTCOME = Hematological parameter values did not differ from control values. No animals died during the study.
- Tmax [16]: 4.98 min
- Tmax [17]: 30 min
- Cmax [18]: 3960 ng/mL
- AUC normalised [19]: 1.71 ((ng/mL).hours)/(mg/kg/day)
- Cmax normalised [20]: 0.624 (ng/mL)/(mg/kg/day)
- Cmax [21]: 12300 ng/mL
- AUC normalised [22]: 5.88 ((ng/mL).hours)/(mg/kg/day)
